ChEMBL document CHEMBL1201862, “PubChem BioAssay data set” (2004)
Blank lines part the entries; values can stand above or below the molecule they belong to. Active and inactive are the calls of the source.

What was measured:
Type in all cases: functional
[1] = Luminescence Cell-Based Dose Response HTS to Identify Activators of Luciferase Translation or Activity in H4 […] Cells. [Related pubchem assays: 1829 (Project Summary), 1814 (Primary HTS)]
[2] = molecular target: T1, Sentrin-specific protease 7 (Homo sapiens, UniProt Q9BQF6);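 further: Luminescence-based dose-response confirmation of ultra-high-throughput screening hits, measuring inhibition of SENP7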
T1 sequence (Q9BQF6 whole entry): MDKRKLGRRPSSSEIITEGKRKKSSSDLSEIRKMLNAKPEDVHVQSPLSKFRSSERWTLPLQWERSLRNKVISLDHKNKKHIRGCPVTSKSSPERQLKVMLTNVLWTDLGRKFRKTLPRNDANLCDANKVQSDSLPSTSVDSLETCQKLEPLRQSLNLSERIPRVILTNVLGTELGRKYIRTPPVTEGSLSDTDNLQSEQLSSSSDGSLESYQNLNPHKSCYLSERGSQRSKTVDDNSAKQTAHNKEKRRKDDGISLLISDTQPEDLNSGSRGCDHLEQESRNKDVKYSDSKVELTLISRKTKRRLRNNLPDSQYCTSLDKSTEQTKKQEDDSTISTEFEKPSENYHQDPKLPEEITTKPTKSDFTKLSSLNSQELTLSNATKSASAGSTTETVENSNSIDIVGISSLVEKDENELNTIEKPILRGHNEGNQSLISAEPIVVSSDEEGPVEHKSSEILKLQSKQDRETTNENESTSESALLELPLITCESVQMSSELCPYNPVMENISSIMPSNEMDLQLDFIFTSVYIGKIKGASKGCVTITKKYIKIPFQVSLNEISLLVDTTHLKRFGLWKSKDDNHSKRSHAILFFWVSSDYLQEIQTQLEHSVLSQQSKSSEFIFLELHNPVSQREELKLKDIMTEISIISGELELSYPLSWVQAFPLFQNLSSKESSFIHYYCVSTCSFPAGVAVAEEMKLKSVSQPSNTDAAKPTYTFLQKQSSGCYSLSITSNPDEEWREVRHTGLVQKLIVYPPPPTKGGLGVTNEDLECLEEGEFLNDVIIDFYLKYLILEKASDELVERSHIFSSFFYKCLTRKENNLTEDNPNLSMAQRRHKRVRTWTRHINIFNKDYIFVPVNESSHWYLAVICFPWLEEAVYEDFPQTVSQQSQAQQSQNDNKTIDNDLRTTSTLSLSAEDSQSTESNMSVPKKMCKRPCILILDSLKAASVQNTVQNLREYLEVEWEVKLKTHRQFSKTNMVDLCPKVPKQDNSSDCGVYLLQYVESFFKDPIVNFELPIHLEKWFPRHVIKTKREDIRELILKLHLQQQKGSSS

[3] = molecular target: T2, Apoptotic protease-activating factor 1 (Homo sapiens, UniProt O14727)
T2 sequence (O14727 whole entry): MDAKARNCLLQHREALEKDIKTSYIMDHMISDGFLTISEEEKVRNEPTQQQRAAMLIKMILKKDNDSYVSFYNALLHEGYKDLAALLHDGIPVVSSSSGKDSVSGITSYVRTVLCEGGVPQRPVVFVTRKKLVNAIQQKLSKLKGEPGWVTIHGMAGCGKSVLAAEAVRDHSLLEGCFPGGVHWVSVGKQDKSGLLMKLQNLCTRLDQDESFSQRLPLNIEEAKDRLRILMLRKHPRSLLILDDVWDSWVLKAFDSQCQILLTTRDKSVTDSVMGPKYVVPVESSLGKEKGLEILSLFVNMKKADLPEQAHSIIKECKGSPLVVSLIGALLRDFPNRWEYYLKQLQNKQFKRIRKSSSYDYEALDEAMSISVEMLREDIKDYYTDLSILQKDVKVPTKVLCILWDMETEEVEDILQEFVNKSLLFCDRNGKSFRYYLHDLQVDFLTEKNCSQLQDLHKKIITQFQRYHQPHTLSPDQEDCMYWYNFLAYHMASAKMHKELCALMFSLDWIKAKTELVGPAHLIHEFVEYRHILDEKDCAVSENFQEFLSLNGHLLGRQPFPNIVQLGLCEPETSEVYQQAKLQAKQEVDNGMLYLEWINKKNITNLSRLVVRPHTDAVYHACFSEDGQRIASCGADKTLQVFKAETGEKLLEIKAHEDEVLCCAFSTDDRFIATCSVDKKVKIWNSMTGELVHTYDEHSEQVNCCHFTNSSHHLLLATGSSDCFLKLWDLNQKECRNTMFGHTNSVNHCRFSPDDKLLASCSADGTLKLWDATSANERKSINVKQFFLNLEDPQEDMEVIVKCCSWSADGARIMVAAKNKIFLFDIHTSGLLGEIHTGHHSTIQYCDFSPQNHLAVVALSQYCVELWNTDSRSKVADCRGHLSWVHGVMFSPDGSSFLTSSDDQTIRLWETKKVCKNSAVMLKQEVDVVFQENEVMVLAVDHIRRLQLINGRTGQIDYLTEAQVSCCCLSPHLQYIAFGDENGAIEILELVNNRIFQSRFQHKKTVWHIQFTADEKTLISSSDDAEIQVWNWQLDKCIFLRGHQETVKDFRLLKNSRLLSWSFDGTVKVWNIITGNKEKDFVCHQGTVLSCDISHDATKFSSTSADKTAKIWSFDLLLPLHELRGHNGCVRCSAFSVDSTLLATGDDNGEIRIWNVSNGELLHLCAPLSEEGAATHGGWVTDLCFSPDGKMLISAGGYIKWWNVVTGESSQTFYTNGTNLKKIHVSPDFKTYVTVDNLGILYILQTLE

[4] = molecular target: RAC-gamma serine/threonine-protein kinase (Homo sapiens, UniProt Q9Y243)
Chain of RAC-gamma serine/threonine-protein kinase (Q9Y243 whole entry): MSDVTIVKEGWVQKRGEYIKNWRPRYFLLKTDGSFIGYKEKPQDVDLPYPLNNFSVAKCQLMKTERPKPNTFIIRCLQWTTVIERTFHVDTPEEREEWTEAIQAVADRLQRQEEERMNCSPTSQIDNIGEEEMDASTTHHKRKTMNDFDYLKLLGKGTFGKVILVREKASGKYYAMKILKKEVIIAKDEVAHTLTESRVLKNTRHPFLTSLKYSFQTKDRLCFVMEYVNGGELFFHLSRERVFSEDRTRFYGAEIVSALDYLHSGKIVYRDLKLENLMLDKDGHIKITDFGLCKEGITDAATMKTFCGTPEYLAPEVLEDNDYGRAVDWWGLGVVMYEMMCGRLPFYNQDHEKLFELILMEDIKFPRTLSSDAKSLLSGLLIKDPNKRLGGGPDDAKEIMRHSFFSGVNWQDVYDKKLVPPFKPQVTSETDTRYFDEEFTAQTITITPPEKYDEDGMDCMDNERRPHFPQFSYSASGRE

[5] = molecular target: Serine/threonine-protein kinase PLK4 (Homo sapiens, UniProt O00444);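 further: PLK4 measured as one member of a kinome-wide kinase profiling panel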
[6] = molecular target: Serine/threonine-protein kinase Chk2 (Homo sapiens, UniProt O96017);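 further: CHEK2 entry within a kinome-wide screening panel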
Chain of Serine/threonine-protein kinase Chk2 (O96017 whole entry): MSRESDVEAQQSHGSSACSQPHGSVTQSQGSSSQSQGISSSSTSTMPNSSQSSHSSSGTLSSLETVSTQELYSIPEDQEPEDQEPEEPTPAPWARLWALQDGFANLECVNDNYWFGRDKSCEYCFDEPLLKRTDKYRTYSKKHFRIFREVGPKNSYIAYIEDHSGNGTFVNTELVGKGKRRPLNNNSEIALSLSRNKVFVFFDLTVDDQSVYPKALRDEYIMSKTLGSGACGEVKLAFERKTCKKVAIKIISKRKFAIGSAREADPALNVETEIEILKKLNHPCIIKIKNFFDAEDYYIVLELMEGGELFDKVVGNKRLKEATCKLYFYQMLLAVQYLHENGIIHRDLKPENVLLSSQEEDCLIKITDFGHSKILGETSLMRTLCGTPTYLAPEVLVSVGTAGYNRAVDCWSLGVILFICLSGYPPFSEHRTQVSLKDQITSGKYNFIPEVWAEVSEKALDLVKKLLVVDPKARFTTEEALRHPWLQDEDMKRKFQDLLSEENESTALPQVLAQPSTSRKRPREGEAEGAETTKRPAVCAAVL

[7] = molecular target: MAP kinase-activated protein kinase 5 (Homo sapiens, UniProt Q8IW41);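 further: measured as one member of a kinome panel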
Chain of MAP kinase-activated protein kinase 5 (Q8IW41 whole entry): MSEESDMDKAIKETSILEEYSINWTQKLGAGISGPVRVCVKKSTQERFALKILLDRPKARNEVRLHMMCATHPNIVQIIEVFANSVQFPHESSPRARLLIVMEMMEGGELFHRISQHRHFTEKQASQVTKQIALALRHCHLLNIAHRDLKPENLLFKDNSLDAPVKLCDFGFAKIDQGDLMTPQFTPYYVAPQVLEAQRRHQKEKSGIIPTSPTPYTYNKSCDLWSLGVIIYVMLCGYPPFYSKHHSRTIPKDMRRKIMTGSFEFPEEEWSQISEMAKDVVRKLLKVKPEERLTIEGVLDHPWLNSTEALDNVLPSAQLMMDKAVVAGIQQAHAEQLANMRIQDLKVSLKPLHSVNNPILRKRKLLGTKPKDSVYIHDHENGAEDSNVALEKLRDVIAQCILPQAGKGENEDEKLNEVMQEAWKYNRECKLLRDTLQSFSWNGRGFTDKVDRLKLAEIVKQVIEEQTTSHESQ

[8] = molecular target: MAP kinase-activated protein kinase 2 (Homo sapiens, UniProt P49137);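 further: measured as one member of a kinome-wide kinase panel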
Chain of MAP kinase-activated protein kinase 2 (P49137 whole entry): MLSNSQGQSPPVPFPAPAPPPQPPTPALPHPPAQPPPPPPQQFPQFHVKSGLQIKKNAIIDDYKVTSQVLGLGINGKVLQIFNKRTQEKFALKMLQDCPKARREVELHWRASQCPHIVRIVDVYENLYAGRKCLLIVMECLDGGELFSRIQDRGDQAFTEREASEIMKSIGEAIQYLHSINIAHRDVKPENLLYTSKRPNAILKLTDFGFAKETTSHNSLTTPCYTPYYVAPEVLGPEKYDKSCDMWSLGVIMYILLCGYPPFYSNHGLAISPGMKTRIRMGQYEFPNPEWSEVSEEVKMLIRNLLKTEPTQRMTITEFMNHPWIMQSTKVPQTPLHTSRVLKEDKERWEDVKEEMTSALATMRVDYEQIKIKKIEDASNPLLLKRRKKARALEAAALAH

[9] = molecular target: Testis-specific serine/threonine-protein kinase 1 (Homo sapiens, UniProt Q9BXA7)
Chain of Testis-specific serine/threonine-protein kinase 1 (Q9BXA7 whole entry): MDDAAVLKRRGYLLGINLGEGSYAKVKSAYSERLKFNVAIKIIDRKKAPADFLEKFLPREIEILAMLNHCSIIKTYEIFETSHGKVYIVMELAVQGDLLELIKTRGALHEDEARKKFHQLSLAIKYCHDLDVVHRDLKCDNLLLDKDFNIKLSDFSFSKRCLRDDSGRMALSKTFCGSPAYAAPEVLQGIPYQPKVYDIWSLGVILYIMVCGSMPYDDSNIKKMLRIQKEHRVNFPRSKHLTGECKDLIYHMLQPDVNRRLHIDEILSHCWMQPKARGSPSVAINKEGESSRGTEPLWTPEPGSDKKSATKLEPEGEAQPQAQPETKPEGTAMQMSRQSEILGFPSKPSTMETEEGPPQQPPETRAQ

[10] = molecular target: Non-receptor tyrosine-protein kinase TYK2 (Homo sapiens, UniProt P29597)
[11] = molecular target: Maternal embryonic leucine zipper kinase (Homo sapiens, UniProt Q14680)
Chain of Maternal embryonic leucine zipper kinase (Q14680 whole entry): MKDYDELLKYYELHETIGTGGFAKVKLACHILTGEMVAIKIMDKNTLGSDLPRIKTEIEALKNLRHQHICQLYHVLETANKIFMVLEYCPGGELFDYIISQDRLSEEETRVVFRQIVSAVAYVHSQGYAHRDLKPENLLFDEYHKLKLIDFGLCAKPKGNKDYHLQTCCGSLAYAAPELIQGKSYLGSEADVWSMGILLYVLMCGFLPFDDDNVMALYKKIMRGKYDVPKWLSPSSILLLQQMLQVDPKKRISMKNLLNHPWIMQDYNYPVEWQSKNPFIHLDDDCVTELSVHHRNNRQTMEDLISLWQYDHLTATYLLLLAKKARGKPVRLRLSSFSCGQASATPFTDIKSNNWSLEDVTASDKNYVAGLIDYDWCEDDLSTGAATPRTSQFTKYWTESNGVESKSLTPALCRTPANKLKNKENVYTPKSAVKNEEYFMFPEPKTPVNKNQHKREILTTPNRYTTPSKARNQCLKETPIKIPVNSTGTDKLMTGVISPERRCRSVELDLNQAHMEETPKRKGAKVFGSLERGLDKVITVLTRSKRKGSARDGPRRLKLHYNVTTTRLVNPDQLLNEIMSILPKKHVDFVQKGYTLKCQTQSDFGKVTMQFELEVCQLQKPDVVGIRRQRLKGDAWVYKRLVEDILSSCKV

[12] = molecular target: Tyrosine-protein kinase Fer (Homo sapiens, UniProt P16591);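 further: FER tested as one member of a kinome panel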
Chain of Tyrosine-protein kinase Fer (P16591 whole entry): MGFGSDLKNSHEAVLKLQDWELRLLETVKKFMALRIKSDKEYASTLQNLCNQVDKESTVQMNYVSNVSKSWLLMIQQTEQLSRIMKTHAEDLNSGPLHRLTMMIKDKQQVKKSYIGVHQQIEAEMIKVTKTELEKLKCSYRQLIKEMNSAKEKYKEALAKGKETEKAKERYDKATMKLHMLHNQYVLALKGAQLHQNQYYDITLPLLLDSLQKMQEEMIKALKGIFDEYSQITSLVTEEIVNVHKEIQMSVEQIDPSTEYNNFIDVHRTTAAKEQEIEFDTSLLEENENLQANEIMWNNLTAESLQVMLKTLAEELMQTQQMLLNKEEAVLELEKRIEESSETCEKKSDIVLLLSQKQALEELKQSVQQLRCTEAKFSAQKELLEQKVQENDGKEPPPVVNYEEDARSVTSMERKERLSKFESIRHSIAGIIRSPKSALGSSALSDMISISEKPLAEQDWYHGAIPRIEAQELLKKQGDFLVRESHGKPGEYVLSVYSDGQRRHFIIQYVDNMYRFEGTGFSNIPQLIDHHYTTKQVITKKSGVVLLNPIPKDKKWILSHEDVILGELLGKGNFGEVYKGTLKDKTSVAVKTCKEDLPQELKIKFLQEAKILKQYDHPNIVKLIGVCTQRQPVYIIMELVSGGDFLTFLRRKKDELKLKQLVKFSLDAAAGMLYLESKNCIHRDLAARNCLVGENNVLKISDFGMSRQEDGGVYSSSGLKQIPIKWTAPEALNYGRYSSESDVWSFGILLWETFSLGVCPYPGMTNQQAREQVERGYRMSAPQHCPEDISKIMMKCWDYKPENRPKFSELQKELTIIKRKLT

[13] = molecular target: Mitogen-activated protein kinase 12 (Homo sapiens, UniProt P53778);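 further: measured as one member of a kinome-wide kinase profiling panel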
Chain of Mitogen-activated protein kinase 12 (P53778 whole entry): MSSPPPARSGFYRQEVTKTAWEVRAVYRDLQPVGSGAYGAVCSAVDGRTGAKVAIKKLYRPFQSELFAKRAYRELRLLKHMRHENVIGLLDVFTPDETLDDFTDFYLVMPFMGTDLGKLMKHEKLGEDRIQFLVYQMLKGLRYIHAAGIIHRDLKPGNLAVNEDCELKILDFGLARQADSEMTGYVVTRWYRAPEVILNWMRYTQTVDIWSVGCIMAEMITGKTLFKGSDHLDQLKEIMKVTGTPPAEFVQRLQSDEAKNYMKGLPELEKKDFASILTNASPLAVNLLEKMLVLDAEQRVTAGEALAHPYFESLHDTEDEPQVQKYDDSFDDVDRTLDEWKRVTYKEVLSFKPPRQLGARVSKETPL

[14] = molecular target: Vascular endothelial growth factor receptor 3 (Homo sapiens, UniProt P35916);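 further: value from a kinome-wide profiling panel, with FLT4 as the panel member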

Compound: O=C1C2=[N+]([O-])[C@H]3CCCC[C@H]3[N+]([O-])=C2c2ccccc21
- EC50 [1]: 14.9 µM (active)
- IC50 [2]: 16.8 µM (active)
- IC50 [3]: 18.1 µM (active)

- Ki [4]: 0.631 µM (active)
- Ki [5]: > 3.98 µM (inactive)
- Ki [6]: > 1.58 µM (inactive)
- Ki [7]: > 1.58 µM (inactive)
- Ki [8]: 0.794 µM (active)
- Ki [9]: 0.0631 µM (active)
- Ki [10]: 0.794 µM (active)
- Ki [11]: 0.126 µM (active)
- Ki [12]: 1 µM (active)
- Ki [13]: 0.794 µM (active)
Compound: NC1CCC(Nc2nccc(-c3c[nH]c4ncccc34)n2)CC1 (centres undefined)

Compound: COC(C(=O)N1Cc2[nH]nc(NC(=O)c3ccc(N4CCN(C)CC4)cc3)c2C1)c1ccccc1 (centres undefined)
- Ki [14]: 0.158 µM (active)
